Data as given in patent US20260053800A1 (Veradermics, Incorporated, priority 2024, published 2026).

Key:
rats = settings: two-year study, oral administration; cited from earlier work
mice = settings: dietary up to 2 years, cited from earlier work
rat hepatocyte = settings: cited from earlier work
rat bone marrow = settings: in vivo; cited from earlier work
mouse bone marrow = settings: in vivo; cited from earlier work
Chinese hamster cells = settings: long exposure times; cited from earlier work
human lymphocytes = settings: cited from earlier work
[1] = cited from earlier work
[2] = hypertensive patients; intravenous infusion; cited from earlier work
[3] = cited from earlier work; remark: listed apart in the source
[4] = Case studies, oral minoxidil in male patients with androgenetic alopecia (blood pressure, heart rate, hair growth); settings: person

For `Nc1cc(N2CCCCC2)nc(N)[n+]1[O-]` [minoxidil], the carcinogenicity findings (rats) is given as “no positive findings”, the “incidence of malignant lymphomas” value (mice; females, all dose levels (10, 25, and 63 mg/kg/day)) is given as “increased incidence of malignant lymphomas in females” and the “incidence of hepatic nodules” value (mice; males, 63 mg/kg/day) is given as “increased incidence of hepatic nodules in males”. The mutagenicity (rat hepatocyte) was “not mutagenic”, the mutagenicity (rat bone marrow) was “not mutagenic” and the mutagenicity (mouse bone marrow) was “not mutagenic”. The cytogenetic assay result (Chinese hamster cells) was “equivocal”, the cytogenetic assay result (human lymphocytes) was “negative” and the “effect on blood pressure” value ([1]; normotensive healthy volunteers, 2.5 mg, 5 mg, or 10 mg oral) was “little effect on blood pressure”. For the same compound, the “fraction of oral dose metabolized” value ([1]; primarily conjugation with glucuronic acid) was “About 90%”, the “steady state plasma concentration associated with significant (>5 beats per minute) changes in heart rate” value [2] was “above 20 ng/mL” and the “temporary decrease in hematocrit, hemoglobin, and erythrocyte count” value ([3]; chronic therapy for severe hypertension, initially) was “approximately 7%”. The “patients exhibiting ECG alterations of T waves” value ([3]; soon after starting therapy) was “approximately 60%”, the adverse events ([4]; 0.625 mg four times a day) was “No unwanted hair growth or other adverse events were noticed” and the “reductions in blood pressure” value ([4]; 0.625 mg four times a day) was “did not experience significant reductions in blood pressure”. The adverse events ([4]; 1.25 mg QID) was “No unwanted hair growth or other adverse events, including any cardiac effects, were noticed”.
